{
  "source": "patent US20110112014A1",
  "about": "(priority 2008, published 2011)",
  "key": {"[1]": {"assay": "Blood glucose concentration after 2 l of beverage in overnight-fasted male subjects", "format": "in vivo, human", "details": "8 fasting male subjects; 2 l consumed between -120 and -40 min; FIG. 2", "procedure": "2 l of each beverage were consumed between −120 and −40 min.\nAfter an overnight fast, each subject consumed 2 l of one solution (between −120 min and −40 min in FIG. 1). All subjects had to ingest all types of solution, however in random order. Simultaneously, blood samples were taken and analyzed for plasma glucose and haemoglobin concentration as well as haematocrit. RER measurements confirmed that all subjects were in a fasting state."}, "[2]": {"assay": "Hydration effect of glycerol solutions by concentration", "format": "in vivo, human", "details": "also printed as 18 g/l"}, "[3]": {"details": "cited from earlier work"}, "[4]": {"details": "large doses; cited from earlier work"}},
  "note": "“Also recorded” adds a separate entry of the source.",
  "data": [
    {"smiles": "OCC(O)CO", "note": "[glycerol, propane-1,2,3-triol]", "values": [
      {"measurement": "Blood glucose concentration", "setting": "[1]", "value": "does not increase blood glucose levels; also recorded: remained unaffected"},
      {"measurement": "Concentration at which appreciable hydration effects are seen", "setting": "[2]", "value": "above 0.2 mol/l"},
      {"measurement": "Hepatic glucose production", "setting": "[3]; compared with fasting control conditions without exogenous glycerol load", "value": "does not increase hepatic glucose production"},
      {"measurement": "Plasma glucose concentrations", "setting": "[3]; healthy fasting subjects, glycerol supplementation", "value": "does not increase plasma glucose concentrations"},
      {"measurement": "Toxicity", "setting": "[4]", "value": "non-toxic"}
    ]}
  ]
}
